# Patent US9451771B2, “Compositions and methods to attract the brown marmorated stink bug (BMSB), Halyomorpha halys” (United States of America as Represented by the Secretary of …, priority 2012, dated 2016)
# System: brown marmorated stink bug (BMSB), Halyomorpha halys
# Assay: Field trials of experimental pheromone constituents, baited black pyramid traps
# Assay type: in vivo
# Description: Field Bioassays. Field Trials of Experimental Pheromone Constituents: Pyramid traps based on dimensions previously used for native stink bugs (Leskey and Hogmire 2005, Hogmire and Leskey 2006) and for brown marmorated stink bugs (Leskey et al. 2012c) were used for all trials. […] Each panel was 1.22 m high, 52 cm wide at the base, and 7 cm wide at the top. Collection jars were constructed based on previously published dimensions (Hogmire and Leskey 2006) with internal cone opening of 1.6 cm with trimmed wire edging to reduce escape. In addition, a Hercon Vaportape™ II (Hercon Environmental, Emigsville, Pa.) was added as a killing agent to prevent escape from traps. In a preliminary study, addition of a killing agent increased trap captures ˜250%. Traps were deployed ˜5 meters from the border of apple and pear orchards at the Appalachian Fruit Research Station or in the border area between wood lots and row crops in Kearneysville, W. Va., Shepherdstown, W. Va., Keedysville, Md., and Beltsville, Md. Traps were spaced ˜50 meters apart. Traps were baited with compounds identified from headspace collections of male BMSB, synthesized and formulated into gray rubber septa or left unbaited.
# Fourteen trials were conducted between 19 Apr. to 20 Oct. 2011 (Table 3) and four trials between 20 Mar. to 10 Oct. 2012 (Table 4). Traps were checked a minimum of twice weekly and the treatments were re-randomized at each collection.
# All adults and nymphs were removed from traps and recorded. Hercon Vaportape™ strips were changed at four week intervals and lures were changed at two week intervals. Comparisons of adult and nymphal captures used the SAS GLM procedure to evaluate effect of treatment and replicate followed by Tukey's HSD if the model was significant. Appropriate transformations were used to stabilize normality if needed. The effect of sex was dropped from all models because it was never a significant factor.
# [1] = AFRS 2011, Trial One, 19 April-10 May
# [2] = AFRS 2011, Trial Seven, 8-19 August
# [3] = AFRS 2011, Trial Ten, 19 Sept.-4 Oct.
# [4] = Beltsville 2011, Trial One, 19 April-10 May
compound,measurement,setting,value
"CCC\C=C/C=C/C=C/C(=O)OC [Lure #3, Methyl (2E,4E,6Z)-decatrienoate]",Mean number BMSB adults (±SE) captured,[1],0.00 ± 0.00 per trap per sample
same,Mean number BMSB nymphs (±SE) captured,[1],0.00 ± 0.00 per trap per sample
same,Mean number BMSB adults (±SE) captured,[2],1.97 ± 0.37a per trap per sample
same,Mean number BMSB nymphs (±SE) captured,[2],34.55 ± 5.85a per trap per sample
same,Mean number BMSB adults (±SE) captured,[3],22.76 ± 4.41a per trap per sample
same,Mean number BMSB nymphs (±SE) captured,[3],1.24 ± 0.34a per trap per sample
same,Mean number BMSB adults (±SE) captured,[4],0.02 ± 0.02ab per treatment
same,Mean number BMSB nymphs (±SE) captured,[4],0.00 ± 0.00 per treatment
